Reference: ChEMBL document CHEMBL1914455, “A dual fluorinated and iodinated radiotracer for PET and SPECT imaging of β-amyloid plaques in the brain” (Bioorg Med Chem Lett, 2011)
Activity calls are given as the source filed them. The calls are words filed in the database; no cut-off is given here.

Key:
Brain [1] = experiment: Biodistribution in ddY mouse brain assessed per gram of tissue at 0.2 to 0.4 uCi, iv after 60 mins; format: ADME, organism-based; conditions: in vivo, 1 h
Blood [2] = experiment: Biodistribution in ddY mouse blood assessed per gram of tissue at 0.2 to 0.4 uCi, iv after 10 mins; format: ADME, organism-based; conditions: in vivo
Stomach [3] = experiment: Biodistribution in ddY mouse stomach assessed per gram of tissue at 0.2 to 0.4 uCi, iv after 30 mins; format: ADME, organism-based; conditions: in vivo, 0.5 h
Kidney [4] = experiment: Biodistribution in ddY mouse kidney assessed per gram of tissue at 0.2 to 0.4 uCi, iv after 2 mins; format: ADME, organism-based; conditions: in vivo
Intestine [5] = experiment: Biodistribution in ddY mouse intestine assessed per gram of tissue at 0.2 to 0.4 uCi, iv after 10 mins; format: ADME, organism-based; conditions: in vivo
Kidney [6] = experiment: Biodistribution in ddY mouse kidney assessed per gram of tissue at 0.2 to 0.4 uCi, iv after 10 mins; format: ADME, organism-based; conditions: in vivo
Blood [7] = experiment: Biodistribution in ddY mouse blood assessed per gram of tissue at 0.2 to 0.4 uCi, iv after 30 mins; format: ADME, organism-based; conditions: in vivo, 0.5 h
Brain [8] = experiment: Drug elimination from ddY mouse brain assessed per gram of tissue after 60 mins; format: ADME, organism-based; conditions: in vivo, 1 h
Pancreas [9] = experiment: Biodistribution in ddY mouse pancreas assessed per gram of tissue at 0.2 to 0.4 uCi, iv after 60 mins; format: ADME, organism-based; conditions: in vivo, 1 h
Spleen [10] = experiment: Biodistribution in ddY mouse spleen assessed per gram of tissue at 0.2 to 0.4 uCi, iv after 30 mins; format: ADME, organism-based; conditions: in vivo, 0.5 h
Heart [11] = experiment: Biodistribution in ddY mouse heart assessed per gram of tissue at 0.2 to 0.4 uCi, iv after 10 mins; format: ADME, organism-based; conditions: in vivo
Stomach [12] = experiment: Biodistribution in ddY mouse stomach assessed per gram of tissue at 0.2 to 0.4 uCi, iv after 10 mins; format: ADME, organism-based; conditions: in vivo
Blood [13] = experiment: Biodistribution in ddY mouse blood assessed per gram of tissue at 0.2 to 0.4 uCi, iv after 2 mins; format: ADME, organism-based; conditions: in vivo
Brain [14] = experiment: Biodistribution in ddY mouse brain assessed per gram of tissue at 0.2 to 0.4 uCi, iv after 30 mins; format: ADME, organism-based; conditions: in vivo, 0.5 h
Stomach [15] = experiment: Biodistribution in ddY mouse stomach assessed per gram of tissue at 0.2 to 0.4 uCi, iv after 60 mins; format: ADME, organism-based; conditions: in vivo, 1 h
Kidney [16] = experiment: Biodistribution in ddY mouse kidney assessed per gram of tissue at 0.2 to 0.4 uCi, iv after 60 mins; format: ADME, organism-based; conditions: in vivo, 1 h
Heart [17] = experiment: Biodistribution in ddY mouse heart assessed per gram of tissue at 0.2 to 0.4 uCi, iv after 60 mins; format: ADME, organism-based; conditions: in vivo, 1 h
Intestine [18] = experiment: Biodistribution in ddY mouse intestine assessed per gram of tissue at 0.2 to 0.4 uCi, iv after 60 mins; format: ADME, organism-based; conditions: in vivo, 1 h
Pancreas [19] = experiment: Biodistribution in ddY mouse pancreas assessed per gram of tissue at 0.2 to 0.4 uCi, iv after 2 mins; format: ADME, organism-based; conditions: in vivo
Heart [20] = experiment: Biodistribution in ddY mouse heart assessed per gram of tissue at 0.2 to 0.4 uCi, iv after 2 mins; format: ADME, organism-based; conditions: in vivo
[21] = Octanol-water partition coefficient, log P of the compound at pH 7.4; format: physicochemical
Intestine [22] = experiment: Biodistribution in ddY mouse intestine assessed per gram of tissue at 0.2 to 0.4 uCi, iv after 30 mins; format: ADME, organism-based; conditions: in vivo, 0.5 h
Liver [23] = experiment: Biodistribution in ddY mouse liver assessed per gram of tissue at 0.2 to 0.4 uCi, iv after 30 mins; format: ADME, organism-based; conditions: in vivo, 0.5 h
Liver [24] = experiment: Biodistribution in ddY mouse liver assessed per gram of tissue at 0.2 to 0.4 uCi, iv after 2 mins; format: ADME, organism-based; conditions: in vivo
Spleen [25] = experiment: Biodistribution in ddY mouse spleen assessed per gram of tissue at 0.2 to 0.4 uCi, iv after 60 mins; format: ADME, organism-based; conditions: in vivo, 1 h
Liver [26] = experiment: Biodistribution in ddY mouse liver assessed per gram of tissue at 0.2 to 0.4 uCi, iv after 60 mins; format: ADME, organism-based; conditions: in vivo, 1 h
Brain [27] = experiment: Biodistribution in ddY mouse brain assessed per gram of tissue at 0.2 to 0.4 uCi, iv after 2 mins; format: ADME, organism-based; conditions: in vivo
Intestine [28] = experiment: Biodistribution in ddY mouse intestine assessed per gram of tissue at 0.2 to 0.4 uCi, iv after 2 mins; format: ADME, organism-based; conditions: in vivo
Kidney [29] = experiment: Biodistribution in ddY mouse kidney assessed per gram of tissue at 0.2 to 0.4 uCi, iv after 30 mins; format: ADME, organism-based; conditions: in vivo, 0.5 h
Heart [30] = experiment: Biodistribution in ddY mouse heart assessed per gram of tissue at 0.2 to 0.4 uCi, iv after 30 mins; format: ADME, organism-based; conditions: in vivo, 0.5 h
Brain [31] = experiment: Biodistribution in ddY mouse brain assessed per gram of tissue at 0.2 to 0.4 uCi, iv after 10 mins; format: ADME, organism-based; conditions: in vivo
Pancreas [32] = experiment: Biodistribution in ddY mouse pancreas assessed per gram of tissue at 0.2 to 0.4 uCi, iv after 30 mins; format: ADME, organism-based; conditions: in vivo, 0.5 h
Spleen [33] = experiment: Biodistribution in ddY mouse spleen assessed per gram of tissue at 0.2 to 0.4 uCi, iv after 2 mins; format: ADME, organism-based; conditions: in vivo
Stomach [34] = experiment: Biodistribution in ddY mouse stomach assessed per gram of tissue at 0.2 to 0.4 uCi, iv after 2 mins; format: ADME, organism-based; conditions: in vivo
Blood [35] = experiment: Biodistribution in ddY mouse blood assessed per gram of tissue at 0.2 to 0.4 uCi, iv after 60 mins; format: ADME, organism-based; conditions: in vivo, 1 h
Liver [36] = experiment: Biodistribution in ddY mouse liver assessed per gram of tissue at 0.2 to 0.4 uCi, iv after 10 mins; format: ADME, organism-based; conditions: in vivo
Spleen [37] = experiment: Biodistribution in ddY mouse spleen assessed per gram of tissue at 0.2 to 0.4 uCi, iv after 10 mins; format: ADME, organism-based; conditions: in vivo
Pancreas [38] = experiment: Biodistribution in ddY mouse pancreas assessed per gram of tissue at 0.2 to 0.4 uCi, iv after 10 mins; format: ADME, organism-based; conditions: in vivo
Bone [39] = experiment: Biodistribution in ddY mouse bone assessed per gram of tissue at 0.2 to 0.4 uCi, iv after 10 mins; format: ADME, organism-based, Bone element; conditions: in vivo
Bone [40] = experiment: Biodistribution in ddY mouse bone assessed per gram of tissue at 0.2 to 0.4 uCi, iv after 60 mins; format: ADME, organism-based, Bone element; conditions: in vivo, 1 h
Bone [41] = experiment: Biodistribution in ddY mouse bone assessed per gram of tissue at 0.2 to 0.4 uCi, iv after 2 mins; format: ADME, organism-based, Bone element; conditions: in vivo
Bone [42] = experiment: Biodistribution in ddY mouse bone assessed per gram of tissue at 0.2 to 0.4 uCi, iv after 30 mins; format: ADME, organism-based, Bone element; conditions: in vivo, 0.5 h
[43] = biological target: Amyloid-beta precursor protein (Homo sapiens) (UniProt P05067); experiment: Binding affinity to beta-amyloid plaque in normal human brain sections at 1.6 uCi after 1 hr by autoradiography; conditions: tested as the 125I-labelled form
Mus musculus [44] = organism: Mus musculus; experiment: Binding affinity to amyloid beta (1 to 42) in wild type mouse brain sections by neuropathological staining method; format: tissue-based
[45] = biological target: Amyloid-beta precursor protein (Homo sapiens) (UniProt P05067); experiment: Binding affinity to beta-amyloid plaque in brain of patient with Alzheimers disease at 1.6 uCi after 1 hr by autoradiography; format: tissue-based; conditions: tested as the 125I-labelled form
Mus musculus [46] = organism: Mus musculus; experiment: Binding affinity to amyloid beta (1 to 42) in Tg2576 mouse brain sections by neuropathological staining method; format: tissue-based
[47] = Displacement of [125I]IMPY from amyloid beta (1 to 42) after 3 hrs by gamma counting

Amyloid-beta precursor protein (Homo sapiens), sequence (P05067 whole entry): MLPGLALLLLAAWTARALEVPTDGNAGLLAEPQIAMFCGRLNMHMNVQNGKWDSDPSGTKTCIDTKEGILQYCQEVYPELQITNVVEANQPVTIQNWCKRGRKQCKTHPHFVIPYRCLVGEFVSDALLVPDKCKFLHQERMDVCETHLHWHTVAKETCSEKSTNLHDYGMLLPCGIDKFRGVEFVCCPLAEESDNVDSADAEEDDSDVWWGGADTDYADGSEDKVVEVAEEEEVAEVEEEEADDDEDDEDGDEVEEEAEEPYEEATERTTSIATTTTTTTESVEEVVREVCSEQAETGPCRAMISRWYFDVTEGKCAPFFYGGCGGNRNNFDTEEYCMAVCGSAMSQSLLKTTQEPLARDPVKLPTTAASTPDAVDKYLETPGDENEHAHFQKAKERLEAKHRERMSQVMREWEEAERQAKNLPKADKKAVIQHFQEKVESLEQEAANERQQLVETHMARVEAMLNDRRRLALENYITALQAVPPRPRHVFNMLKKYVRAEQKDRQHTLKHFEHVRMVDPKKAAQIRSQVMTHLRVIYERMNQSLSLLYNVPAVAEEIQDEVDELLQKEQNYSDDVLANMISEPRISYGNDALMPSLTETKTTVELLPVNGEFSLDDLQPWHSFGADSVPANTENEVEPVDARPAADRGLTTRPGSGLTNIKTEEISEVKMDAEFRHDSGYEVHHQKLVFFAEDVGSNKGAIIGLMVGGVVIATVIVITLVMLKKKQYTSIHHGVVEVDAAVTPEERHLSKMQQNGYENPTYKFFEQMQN

Compound: O=C1/C(=C/c2ccc(OCCF)cc2)Oc2ccc([125I])cc21
- Drug uptake (Brain [1]): 0.19 %ID
- Drug uptake (Blood [2]): 3.13 %ID
- Drug uptake (Stomach [3]): 0.79 %ID
- Drug uptake (Kidney [4]): 6.96 %ID
- Drug uptake (Intestine [5]): 6.53 %ID
- Drug uptake (Kidney [6]): 7.53 %ID
- Drug uptake (Blood [7]): 1.94 %ID
- CL (Brain [8]): 0.19 %ID
- Drug uptake (Pancreas [9]): 1.35 %ID
- Drug uptake (Spleen [10]): 3.61 %ID
- Drug uptake (Heart [11]): 1.95 %ID
- Drug uptake (Stomach [12]): 1.46 %ID
- Drug uptake (Blood [13]): 6.7 %ID
- Drug uptake (Brain [14]): 0.19 %ID
- Drug uptake (Stomach [15]): 0.89 %ID
- Drug uptake (Kidney [16]): 5.22 %ID
- Drug uptake (Heart [17]): 1.19 %ID
- Drug uptake (Intestine [18]): 15.74 %ID
- Drug uptake (Pancreas [19]): 3.44 %ID
- Drug uptake (Heart [20]): 4.9 %ID
- logD [21]: 2.45
- Drug uptake (Intestine [22]): 12.35 %ID
- Drug uptake (Liver [23]): 12.44 %ID
- Drug uptake (Liver [24]): 17.06 %ID
- Drug uptake (Spleen [25]): 2.37 %ID
- Drug uptake (Liver [26]): 10.96 %ID
- Drug uptake (Brain [27]): 2.34 %ID
- Drug uptake (Intestine [28]): 2.02 %ID
- Drug uptake (Kidney [29]): 5.49 %ID
- Drug uptake (Heart [30]): 1.54 %ID
- Drug uptake (Brain [31]): 0.84 %ID
- Drug uptake (Pancreas [32]): 0.8 %ID
- Drug uptake (Spleen [33]): 3.74 %ID
- Drug uptake (Stomach [34]): 0.61 %ID
- Drug uptake (Blood [35]): 1.29 %ID
- Drug uptake (Liver [36]): 16.5 %ID
- Drug uptake (Spleen [37]): 4.33 %ID
- Drug uptake (Pancreas [38]): 1.33 %ID

Compound: O=C1/C(=C/c2ccc(OCC[18F])cc2)Oc2ccc(I)cc21
- Drug uptake (Brain [1]): 1.75 %ID
- Drug uptake (Blood [2]): 2.84 %ID
- Drug uptake (Blood [7]): 2.68 %ID
- CL (Brain [8]): 1.75 %ID
- Drug uptake (Bone [39]): 2.13 %ID
- Drug uptake (Blood [13]): 5.72 %ID
- Drug uptake (Brain [14]): 1.77 %ID
- Drug uptake (Bone [40]): 3.42 %ID
- Drug uptake (Bone [41]): 2.03 %ID
- Drug uptake (Bone [42]): 3.45 %ID
- Drug uptake (Brain [27]): 3.66 %ID
- Drug uptake (Brain [31]): 2.37 %ID
- Drug uptake (Blood [35]): 2.61 %ID

Compound: O=C1/C(=C/c2ccc(OCCF)cc2)Oc2ccc(I)cc21
- Activity [43]: inactive
- Activity (Mus musculus [44]): inactive
- Activity [45]: Active
- Activity (Mus musculus [46]): Active
- Activity [47]: Dose-dependent effect
- Ki [47]: 6.81 nM
